A short description of test [1]: Inhibition of NMDA-induced nNOS/PSD95 in rat cortical neurons preincubated for 30 mins followed by NMDA addition in presence of glutamate/glycine measured after 24 hrs by immunoprecipitation assay. The class given is cell-based. The following applies: cortical neuron.
The nature of test [2]: Inhibition of human GSNOR.
The species entered for another test is Homo sapiens. The test can be described thus: Inhibition of nNOS (unknown origin)/CAPON (unknown origin) protein-protein interaction assessed as residual activity by coimmunoprecipitation assay relative to control. The arrangement: concentration or dose not given beside the values.
Test [3] can be described thus: Inhibition of recombinant nNOS (1 to 299 residues) (unknown origin)/biotin-tagged PSD95 (unknown origin) protein-protein interaction by DELFIA. Also noted: species or system Homo sapiens.

SMILES strings stand for the structures.

Turning to `COC(=O)c1ccc(NCc2cc(Cl)cc(Cl)c2O)cc1O`, the IC50 (usually the point on the concentration scale where inhibition reaches its midpoint) in test [1] worked out at 11200 nM. Take `Cc1cc(NS(C)(=O)=O)ccc1-n1c(CCC(=O)O)ccc1-c1ccc(-n2ccnc2)cc1`: it took 29 nM to reach half-maximal inhibition in test [2] (IC50). As to `COC(=O)[C@H](NCCC(=O)O)C(C)C`, the Activity in the test listed under Homo sapiens is 87.8%. Take `O=C(O)c1ccc(NCCc2cc(Cl)cc(Cl)c2O)cc1O`: the IC50 in test [1] was determined as 597000 nM. Molecule `O=C(O)c1ccc(C#Cc2ccc(O)cc2Cl)c(CCCn2cnnn2)c1` gave an IC50 in test [2] of less than 50 nM. As to `COC(=O)CCC(=O)N[C@@H](C(=O)OC)C(C)C`, the Activity in the test filed under Homo sapiens amounted to 61.8%. Regarding `Cc1cc(-n2ccnc2)ccc1-c1cc2sc(C(=O)O)cc2n1-c1ccc(C(N)=O)c(OCC(C)C)c1`, the IC50 in test [2] is less than 50 nM. Turning to `COC(=O)[C@@H](NC(=O)CC(=O)O)C(C)C`, the Activity in the test filed under Homo sapiens is 37.5%.

Take `COC(=O)[C@H](NC(=O)Cc1nnn[nH]1)C(C)C`: the Activity in the test filed under Homo sapiens was determined as 49.4%.

On to `O=C(O)c1ccc(NCc2cc(F)ccc2O)cc1O`, for which the IC50 in test [1] worked out at 880 nM. Take `Oc1c(Cl)cc(Cl)cc1CNc1ccc2nn[nH]c2c1`: the concentration for half-maximal inhibition (IC50) in test [3] is 31000 nM. `Cc1cc(C(N)=O)ccc1-n1c(CCC(=O)O)ccc1-c1ccc(Cl)cc1O`: inhibition in test [2] was half-maximal at 55 nM (IC50).

Turning to `Cc1nccn1-c1ccc(-c2ccc(CCC(=O)O)n2-c2ccc(O)cc2)s1`, the half-inhibitory concentration (IC50) in test [2] turned out to be 36 nM. The same measure, in the same setting: to `Cc1cc(S(N)(=O)=O)ccc1-n1c(CCC(=O)O)ccc1-c1ccc(-n2ccnc2C)s1` belongs 22 nM; to `NC(=O)c1ccc(-c2cc(C(=O)O)ccc2C#Cc2ccc(O)cc2Cl)cc1`, less than 50 nM. Same read-out and setting: in the case of `O=C(O)CCc1ccc(-c2ccc(-n3ccnc3)cc2)n1-c1ccc(O)cc1` it was 39 nM; in that of `COc1cc(Cl)ccc1-c1ccc(CCC(=O)O)n1-c1ccc(C(N)=O)cc1C`, 56 nM. For the molecule `O=C(O)c1ccc(NCc2cc(Br)ccc2O)cc1O`, in test [1], the IC50 is 10300 nM.

Consider `O=C(O)c1ccc(NCc2cc(Cl)cc(Cl)c2O)cc1O`, for which the concentration for half-maximal inhibition (IC50) in test [1] came out at 82 nM. On to `O=C(O)c1cc(NCc2cc(Cl)cc(Cl)c2O)ccc1O`, for which the IC50 in test [1] worked out at 870000 nM.

For `COC(=O)[C@H](NC(=O)CC(=O)O)C(C)C`, the Activity in the test filed under Homo sapiens turned out to be 30.5%.

As to `O=C(O)c1ccc(NCc2cc(Cl)ccc2O)cc1O`, the IC50 in test [1] amounted to 40100 nM. For `Cc1cc(NS(C)(=O)=O)ccc1-n1c(CCC(=O)O)ccc1-c1ccc(-n2ccnc2C)s1`, it took 43 nM to reach half-maximal inhibition in test [2] (IC50).

With `CC(C)[C@@H](NC(=O)CC(=O)O)C(=O)O`, in the test listed under Homo sapiens, the Activity stood at 75%. On to `Cc1cc(C(N)=O)ccc1-n1c(CCC(=O)O)ccc1-c1ccc(Br)cc1`, for which inhibition in test [2] was half-maximal at 70 nM (IC50).

`COC(=O)CC(=O)N[C@@H](C(=O)OC)C(C)C`: the Activity in the test filed under Homo sapiens stood at 26.3%. `Cc1nccn1-c1ccc(-c2ccc(CCC(=O)O)n2-c2ccc(S(N)(=O)=O)cc2)s1` displayed an IC50 in test [2] of 23 nM. Still for that read-out and setting: to `CCOc1cc([C@@H]2NC(=O)NC(c3cccnc3)=C2c2ccsc2)cc(C(=O)O)c1O` belongs less than 100 nM. `COC(=O)[C@@H](Cc1ccccc1)NC(=O)CC(=O)O`: the Activity in the test filed under Homo sapiens was found to be 76.6%.

The record behind these values is ChEMBL document CHEMBL5131513, “Protein S-Nitrosation: Biochemistry, Identification, Molecular Mechanisms, and Therapeutic Applications” (J Med Chem, 2022).
